From patent US8877786B2, “Substituted carbamoylmethylamino acetic acid derivatives as novel NEP inhibitors” (Novartis AG, priority 2009, dated 2014)

biological target: recombinant human neutral endopeptidase (NEP, EC 3.4.24.11) (Homo sapiens (Human), UniProt P08473); assay: in vitro inhibition of recombinant human neutral endopeptidase (fluorescence lifetime assay); type: biochemical; conditions: recombinant human NEP 7 pM, 1 hour pre-incubation at room temperature, pH 7.4, substrate Cys(PT14)-Arg-Arg-Leu-Trp-OH 0.7 μM, FLT read after 1 hour
Text: The activity of a compound according to the present invention can be assessed by the following in vitro & in vivo methods and/or by the following in vitro & in vivo methods well-described in the art. See A fluorescence lifetime-based assay for protease inhibitor profiling on human kallikrein 7 Doering K, Meder G, Hinnenberger M, Woelcke J, Mayr L M, Hassiepen U Biomol Screen.

recombinant human neutral endopeptidase (NEP, EC 3.4.24.11), sequence (P08473 whole entry): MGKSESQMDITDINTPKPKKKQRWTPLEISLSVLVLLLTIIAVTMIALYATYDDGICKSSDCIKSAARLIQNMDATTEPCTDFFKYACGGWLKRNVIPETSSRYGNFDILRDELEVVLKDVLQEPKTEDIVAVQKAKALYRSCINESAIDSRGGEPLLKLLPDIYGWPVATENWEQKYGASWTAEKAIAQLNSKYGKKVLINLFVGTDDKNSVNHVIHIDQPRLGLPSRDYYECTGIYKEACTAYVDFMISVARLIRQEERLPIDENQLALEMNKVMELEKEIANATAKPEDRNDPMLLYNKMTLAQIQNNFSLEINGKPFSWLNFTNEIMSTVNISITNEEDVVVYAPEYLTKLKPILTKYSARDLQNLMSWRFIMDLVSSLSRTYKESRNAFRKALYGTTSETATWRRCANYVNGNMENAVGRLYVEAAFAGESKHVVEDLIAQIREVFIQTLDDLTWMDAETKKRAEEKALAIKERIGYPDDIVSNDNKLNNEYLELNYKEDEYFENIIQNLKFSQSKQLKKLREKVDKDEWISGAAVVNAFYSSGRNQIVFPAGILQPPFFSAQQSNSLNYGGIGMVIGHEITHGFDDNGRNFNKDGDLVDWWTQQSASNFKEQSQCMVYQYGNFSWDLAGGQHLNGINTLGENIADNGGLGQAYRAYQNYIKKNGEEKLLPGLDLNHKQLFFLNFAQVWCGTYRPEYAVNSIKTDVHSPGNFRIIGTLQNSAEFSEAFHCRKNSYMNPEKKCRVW

**Q.** Which IC50 does the source give for C[C@H](N[C@@H](Cc1ccc(-c2cc(Cl)ccc2Cl)cc1)C(=O)Nc1nnn[nH]1)C(=O)O [Example 3-2, (S)-2-[(S)-2-(2′,5′-dichloro-biphenyl-4-yl)-1-(1H-tetrazol-5-ylcarbamoyl)-ethylamino]-propionic acid] here?
**A.** 0.3 nM

**Q.** How did the IC50 turn out when C[C@H](N[C@@H](Cc1ccc(-c2ccccc2)cc1)C(=O)Nc1nnn[nH]1)C(=O)O [Example 3-4, (S)-2-[(S)-2-Biphenyl-4-yl-1-(1H-tetrazol-5-ylcarbamoyl)-ethylamino]-propionic acid] was run?
**A.** 11 nM

**Q.** How did the IC50 turn out when C[C@H](N[C@@H](Cc1ccc(-c2cccc(Cl)c2)cc1)C(=O)Nc1nnn[nH]1)C(=O)O [Example 3-1, (S)-2-[(S)-2-(3′-chloro-biphenyl-4-yl)-1-(1H-tetrazol-5-ylcarbamoyl)-ethylamino]-propionic acid] was run?
**A.** 0.09 nM

**Q.** How did the IC50 turn out when O=C(O)[C@H](CCc1ccccc1)N[C@@H](Cc1ccc(-c2cccc(Cl)c2)cc1)C(=O)Nc1nnn[nH]1 [Example 3-12, (S)-2-[(S)-2-(3′-Chloro-biphenyl-4-yl)-1-(1H-tetrazol-5-ylcarbamoyl)-ethylamino]-4-phenyl-butyric acid] was run?
**A.** 0.2 nM

**Q.** How did the IC50 turn out when C[C@H](N[C@@H](Cc1ccc(-c2cccc(Cl)c2)cc1)C(=O)Nc1cc(O)no1)C(=O)O [Example 3-7, (S)-2-[(S)-2-(3′-Chloro-biphenyl-4-yl)-1-(3-hydroxy-isoxazol-5-ylcarbamoyl)-ethylamino]-propionic acid] was run?
**A.** 2.4 nM
